Experimental findings from PubChem BioAssay AID1996 are described below.

As usually defined, the kinetic solubility is solubility judged after dilution from a stock solution rather than from solid.

Converted amounts (≈) assume the structure as drawn.

The conditions of the data set: buffer; pH 7.4; 200.0 µM.
Molecule `Cc1ccccc1S(=O)(=O)Nc1ncnc2ccccc12` yielded a kinetic solubility above 44.9 µg/mL.

For `O=C(Cc1ccc(-c2ccccc2)cc1)Nc1ccccc1`, the kinetic solubility is 1.7 µg/mL (≈ 5.92 µM). With `CC(C)c1ccc(CN2CCSCC2)cc1` the figure was 1.1 µg/mL (≈ 4.67 µM). With `CN(C(=O)COc1ncnc2sccc12)c1ccccc1` the figure was 39.4 µg/mL (≈ 132 µM); with `O=c1[nH]c(O)c(C=NCCc2ccccc2)c(=O)[nH]1`, 3.6 µg/mL (≈ 13.9 µM); with `CC(=O)c1ccc(NC(=O)CSc2nccn2C)cc1`, above 43.4 µg/mL. The molecule `N#CC1=C(N)N2C(=C(C#N)C13CCCC3)Nc1ccccc12` displayed a kinetic solubility of 36.9 µg/mL (≈ 128 µM). Next, `Cc1csc2c(=O)sc(NC(=O)c3ccco3)nc12`: 4.5 µg/mL (≈ 15.4 µM); `CN(C)C(=O)Oc1ccc2c(c1)O/C(=C\c1cccc(Cl)c1)C2=O`: below 0.7 µg/mL; `COc1ccc(C(=O)NCC(O)CN2CCOCC2)cc1[N+](=O)[O-]` (stereo not drawn): 38.9 µg/mL (≈ 115 µM). Next, `O=S(=O)(O)c1ccc(SCc2ccccc2)nc1`: above 42.2 µg/mL. Next, `Cc1ccc(SC(=O)c2c(C)noc2-c2cc(C)on2)cc1`: 3 µg/mL (≈ 9.54 µM). With `O=C(COc1ccccc1F)NCCc1ccc2c(c1)OCCO2`, the kinetic solubility is above 49.7 µg/mL. `Nc1c([N+](=O)[O-])cc(-c2cnc[nH]2)cc1[N+](=O)[O-]`: the kinetic solubility was below 0.1 µg/mL. In the case of `CC(=O)Nc1ccc2c(c1)nc(C)n2Cc1ccccc1`, the solubility (kinetic) is above 41.9 µg/mL. With `Cc1nc([N+](=O)[O-])cn1CC(O)c1ccc(Cl)cc1` (stereo not drawn) the figure was above 42.3 µg/mL; with `CN(C)CCCN(Cc1ccc2c(c1)OCO2)C(=O)NC1CCCCC1`, above 54.2 µg/mL; with `CCc1ccccc1NC(=O)COC(=O)C1C2CC3OC(=O)C1C3C2` (stereo not drawn), 46.2 µg/mL (≈ 135 µM). `CCNC(=O)CSc1nc(-c2ccc(F)cc2)cs1` returned a solubility (kinetic) of 42.8 µg/mL (≈ 144 µM). With `COc1ccc(CN(C)CC(=O)NC(C)c2ccccc2)c(OC)c1` (stereo not drawn) the figure was 51.2 µg/mL (≈ 150 µM); with `COC(=O)c1ccccc1Oc1ccc(NC(=O)CCCl)cc1`, above 50.1 µg/mL. With `CC(OC(=O)c1cccn1C)C(=O)Nc1ccc2c(c1)OCO2` (stereo not drawn) the figure was 22.5 µg/mL (≈ 71.1 µM); with `O=C(Nc1ccccc1)c1ccc(-c2ccc(F)cc2)s1`, below 0.6 µg/mL; with `Cc1cnc(NC(=O)/C=C/c2ccc(Br)o2)s1`, 0.8 µg/mL (≈ 2.55 µM). The molecule `Cc1ccc(S(=O)(=O)NC(=O)N(C)C2CCCCC2)cc1` returned a solubility (kinetic) above 46.6 µg/mL. With `Nc1cccc(/C=C/C(=O)O)c1` the figure was above 24.5 µg/mL.

The molecule `COc1ccc(CCNC(=O)CCC(=O)NC2CCCCC2)cc1OC` showed a solubility (kinetic) above 54.4 µg/mL. Consider `CN(C)S(=O)(=O)c1cccc(NC(=O)COC(=O)[C@H](Cc2ccccc2)NC(=O)c2ccco2)c1`, for which the kinetic solubility is 24.2 µg/mL (≈ 48.4 µM). Next, `CC(=O)Nc1ccc(NC(=O)CSc2ccc([N+](=O)[O-])cn2)cc1`: 3 µg/mL (≈ 8.66 µM). With `Cc1nc(N2CCOCC2)[nH]c(=O)c1C` the figure was above 31.4 µg/mL; with `COC(=O)c1ccc(C(=O)Nc2nc3cc(N)c(C)cc3s2)cc1`, below 0.2 µg/mL; with `O=C(NCC(=O)N1CCCC(C(F)(F)F)C1)c1ccco1` (stereo not drawn), above 45.6 µg/mL.

Take `O=C(COC(=O)c1cccc(Br)c1)NCCC1=CCCCC1`: the solubility (kinetic) was determined as 2.5 µg/mL (≈ 6.83 µM). Molecule `O=C(CSc1cc(Cl)ccc1Cl)NC1CCCC1` had a solubility (kinetic) of 3.6 µg/mL (≈ 11.8 µM). With `Cc1cc(C)nc(N2CCC(C(=O)NCc3ccccc3F)CC2)n1` the figure was 0.3 µg/mL (≈ 0.876 µM). For the molecule `CCc1ccnc(NS(=O)(=O)c2ccc3c(c2)CCO3)c1`, the kinetic solubility came out at 17.6 µg/mL (≈ 57.8 µM).

In the case of `CN(C)c1ccc(C(=O)NC2(N3CCC3=O)CCCC2)cc1`, the solubility (kinetic) was above 45.2 µg/mL.

`CCNC(=S)N1CCN(S(=O)(=O)/C=C/c2ccccc2)CC1`: the solubility (kinetic) was found to be 4.2 µg/mL (≈ 12.4 µM). Next, `Cc1ccc(NC(=O)N2CCCC(c3ccccc3)C2)cc1` (stereo not drawn): 1.6 µg/mL (≈ 5.43 µM); `O=C(NC(=S)Nc1ccccc1Br)C1CCCCC1`: 2.2 µg/mL (≈ 6.45 µM); `CCOC(=O)c1csc(NC(=O)CN2CCN(C)CC2)n1`: above 46.9 µg/mL. With `COc1ccc(-c2cc(C(F)(F)F)nc(-n3ccnc3)n2)cc1` the figure was 0.6 µg/mL (≈ 1.87 µM); with `Cl.c1ccc2c(c1)nc(N1CCCCC1)c1ccccc12`, 1.8 µg/mL; with `COC(=O)c1ccc(NC(=O)COc2ccc([N+](=O)[O-])cc2)cc1`, 0.4 µg/mL (≈ 1.21 µM).

In turn, `O=C(NCCc1ccccc1Cl)C1CC(=O)N(C2CCCCC2)C1` (stereo not drawn) came in with a kinetic solubility above 52.3 µg/mL. Next, `C=CCOn1c(=O)c(-c2ccc(F)cc2)[n+]([O-])c2ccccc21`: 2 µg/mL (≈ 6.4 µM); `O=C(CN1C(=O)NC2(CCCC2)C1=O)NC(c1ccccc1)c1ccccc1`: 14.5 µg/mL (≈ 38.4 µM); `C=CCOc1ccc(CNCC2CCCO2)cc1.Cl` (stereo not drawn): above 42.6 µg/mL.

For the molecule `Cn1cccc1/C=C1\SC(=Nc2cccc(O)c2)NC1=O`, the kinetic solubility amounted to 5.6 µg/mL (≈ 18.7 µM). In the case of `Cc1ccc(C(=O)Nc2ccc3ccccc3c2)cc1`, the kinetic solubility was below 0.6 µg/mL. Next, `CC1(C)C(=O)N(c2ccccc2F)C(=O)c2ccccc21`: 37.2 µg/mL (≈ 131 µM); `O=C(NC1CCCc2ccccc21)N[C@@H](Cc1ccccc1)C(=O)O` (stereo partly drawn): above 50.8 µg/mL; `C=Cn1cc[n+](CC(=O)c2ccc(OC)cc2)c1.[Br-]`: 45.2 µg/mL. Next, `Oc1ccc2ccccc2c1CN1CCOCC1`: above 36.5 µg/mL; `CNS(=O)(=O)c1ccc(NS(=O)(=O)c2ccccc2F)cc1`: 51 µg/mL (≈ 148 µM); `O=C(COC(=O)c1cc(S(=O)(=O)N2CCCC2)ccc1O)Nc1ccccc1Br`: 9.6 µg/mL (≈ 19.9 µM).

On to `CCSc1nc2sc3c(c2c(=O)[nH]1)CC(C)(C)OC3`, for which the kinetic solubility turned out to be 3.1 µg/mL (≈ 10.5 µM). Next, `COc1cccc(N2CCN(C(=O)CSc3ccc(F)cc3)CC2)c1`: 50.2 µg/mL (≈ 139 µM); `C/C(CC1CC(C)(C)OC1=O)=N\NC(N)=S` (stereo not drawn): above 36.5 µg/mL. With `Cc1ccc(NC(=O)c2ccc3nsnc3c2)c(Cl)c1` the figure was 0.5 µg/mL (≈ 1.65 µM). Regarding `Cc1ccccc1-n1c(=O)n(Cc2ccccc2)c(=O)c2[nH]cnc21`, the kinetic solubility is above 49.9 µg/mL. With `CCNC(=O)C12CCC(C)(c3nc4cc(C)c(C)cc4nc31)C2(C)C` (stereo not drawn) the figure was 47.4 µg/mL (≈ 140 µM). Next, `COc1ccc(NC(=O)c2cc3ccccc3cc2OC)cc1`: 5.9 µg/mL (≈ 19.2 µM). The molecule `CC1CCCN(C(=O)CN2C(=O)NC(C)(c3ccc4ccccc4c3)C2=O)C1` (stereo not drawn) showed a solubility (kinetic) above 56.9 µg/mL. With `O=[N+]([O-])c1ccc2nc(Cl)nc(-c3ccccc3)c2c1` the figure was 4.8 µg/mL (≈ 16.8 µM); with `CC(C)N1CCN(Cc2cc3ccccc3[nH]2)CC1CCO` (stereo not drawn), above 45.2 µg/mL. `COc1ccc(C(=O)NCC(=O)OCC(=O)N2CCc3ccccc32)cc1` yielded a kinetic solubility of 23 µg/mL (≈ 62.4 µM).

Consider `Cc1ccc(S(=O)(=O)n2c(C)nc3cc(C)ccc32)cc1`, for which the solubility (kinetic) came to 32 µg/mL (≈ 107 µM). This solubility kinetic and that of the molecule before are within 1.5-fold of each other.

`Cc1cc(C(C)(C)C)oc1C(=O)OCC(=O)NC1CCCCC1` gave a solubility (kinetic) of 1.1 µg/mL (≈ 3.42 µM). Next, `CCOC(=O)c1ccc(NC(=O)CC2SC3=NCCN3C2=O)cc1` (stereo not drawn): above 52.1 µg/mL. With `CSc1ccc(Cl)c(C(=O)Nc2cc(S(=O)(=O)N3CCOCC3)ccc2N2CCOCC2)c1` the figure was 3.4 µg/mL (≈ 6.64 µM); with `Cc1cc(NC(=O)CSCC(=O)N2CCN(c3ccccc3)CC2)no1`, above 56.2 µg/mL; with `Cc1ccc(-c2cc(-c3ccccc3)nc(N)c2C#N)o1`, below 0.2 µg/mL.
